The structures appear in SMILES notation. Structures can show the parent of a compound that is named as a salt.

The subject of the assay is VSV-g pseudotyped HIV vector that expresses luciferase (PHIV). Briefly: microbe, parasite or virus in culture. Conditions: Human immunodeficiency virus 1, HEK-293T, 48 h, read-out: PHIV IC50. The format is cell-based.
Regarding `CN1C[C@@H]2CCCC[C@@H]2N2C(=O)c3c(O)c(=O)c(C(=O)NCc4ccc(F)cc4F)cn3C[C@@H]12` (racemic) [Example Z-53, racemic-(4aS,6aS,14aS)—N-[(2,4-Difluorophenyl)methyl]-12-hydroxy-6-methyl-11,13-dioxo-1,2,3,4,4a,5,6,6a,7,11,13,14a-dodecahydropyrido[1′,2′:4,5]pyrazino[1,2-a]quinazoline-10-carboxamide], the 50% inhibitory concentration (IC50) was less than 10 nM.

As for `O=C(NCc1ccc(F)cc1F)c1cn2c(c(O)c1=O)C(=O)N1[C@@H](Cc3c[nH]c4ccccc34)CO[C@@H]1C2` [Example Z-28, (3S,11aR)—N-[(2,4-Difluorophenyl)methyl]-6-hydroxy-3-(1H-indo-3-ylmethyl)-5,7-dioxo-2,3,5,7,11,11a-hexahydro[1,3]oxazolo[3,2-a]pyrido[1,2-d]pyrazine-8-carboxamide], the IC50 is less than 10 nM. The result for `CC(C)CN1C[C@@H]2CCC[C@@H]2N2C(=O)c3c(O)c(=O)c(C(=O)NCc4ccc(F)cc4F)cn3C[C@@H]12` (racemic) [Example Z-49, racemic-(3aS,5aS,13aS)—N-[(2,4-Difluorophenyl)methyl]-11-hydroxy-5-(2-methylpropyl)-10,12-dioxo-2,3,3a,4,5,5a,6,10,12,13a-decahydro-1H-cyclopenta[e]pyrido[1′,2′:4,5]pyrazino[1,2-a]pyrimidine-9-carboxamide] reads less than 10 nM; that for `O=C(NCc1ccc(F)cc1F)c1cn2c(c(O)c1=O)C(=O)N1CC3CCCCN3[C@H]1C2` (stereo partly drawn) [Example Z-18, (3aR,14aR)—N-[(2,4-Difluorophenyl)methyl]-11-hydroxy-10,12-dioxo-1,2,3,4,5a,6,10,12,14,14a-decahydropyrido[1,2-d]pyrido[1′,2′:3,4]imidazo[1,2-d]pyrazine-9-carboxamide], less than 10 nM. The result for `O=C(NCc1ccc(F)cc1F)c1cn2c(c(O)c1=O)C(=O)N1C(C2)O[C@@H]2Cc3ccccc3[C@@H]21` (stereo partly drawn) [Example Z-22, (5aR,14aS)—N-[(2,4-Difluorophenyl)methyl]-12-hydroxy-11,13-dioxo-5a,6a,7,11,13,14a-hexahydro-5H-indeno[1′,2′:4,5][1,3]oxazolo[3,2-a]pyrido[1,2-d]pyrazine-10-carboxamide] reads less than 10 nM; that for `CC(C)(C)[C@H]1CO[C@@H]2Cn3cc(C(=O)NCc4ccc(F)cc4F)c(=O)c(O)c3C(=O)N21` [Example Z-11, (3S,11aR)—N-[(2,4-Difluorophenyl)methyl]-3-(1,1-dimethylethyl)-6-hydroxy-5,7-dioxo-2,3,5,7,11,11a-hexahydro[1,3]oxazolo[3,2-a]pyrido[1,2-d]pyrazine-8-carboxamide], less than 10 nM. For `O=C(NCc1ccc(F)cc1F)c1cn2c(c(O)c1=O)C(=O)N1[C@@H](C2)N[C@H]2CCCC[C@@H]21` [Example Z-40, (6aS,7S,11aS)—N-[(2,4-Difluorophenyl)methyl]-1-hydroxy-2,13-dioxo-2,6a,7,7a,8,9,10,11,11a,13-decahydro-6H-pyrido[1′,2′:4,5]pyrazino[1,2-a]benzimidazole-3-carboxamide], the IC50 was less than 10 nM.

As to `CC(C)[C@@H]1CO[C@H]2Cn3cc(C(=O)NCc4ccc(F)cc4F)c(=O)c(O)c3C(=O)N21` [Example Z-25, (3R,11aS)—N-[(2,4-Difluorophenyl)methyl]-6-hydroxy-3-(1-methylethyl)-5,7-dioxo-2,3,5,7,11,11a-hexahydro[1,3]oxazolo[3,2-a]pyrido[1,2-d]pyrazine-8-carboxamide], the IC50 was less than 10 nM. The result for `CC(C)[C@H]1CO[C@@H]2Cn3cc(C(=O)NCc4ccc(F)cc4F)c(=O)c(O)c3C(=O)N12` [Example Z-21, (3S,11aR)—N-[(2,4-Difluorophenyl)methyl]-6-hydroxy-3-(1-methylethyl)-5,7-dioxo-2,3,5,7,11,11a-hexahydro[1,3]oxazolo[3,2-a]pyrido[1,2-d]pyrazine-8-carboxamide] reads less than 10 nM; that for `CC(C)N1CC[C@H](C)N2C(=O)c3c(O)c(=O)c(C(=O)NCc4ccc(F)cc4F)cn3C[C@@H]12` [Example Z-44, (4S,12aS)—N-[(2,4-Difluorophenyl)methyl]-7-hydroxy-4-methyl-1-(1-methylethyl)-6,8-dioxo-1,2,3,4,6,8,12,12a-octahydropyrido[1′,2′:4,5]pyrazino[1,2-a]pyrimidine-9-carboxamide], less than 10 nM; that for `O=C(NCc1ccc(F)cc1F)c1cn2c(c(O)c1=O)C(=O)N1C[C@H]3CCCN3[C@@H]1C2` [Example Z-4, (4aS,13aR)—N-[(2,4-Difluorophenyl)methyl]-10-hydroxy-9,11-dioxo-2,3,4a,5,9,11,13,13a-octahydro-1H-pyrido[1,2-a]pyrrolo[1′,2′:3,4]imidazo[1,2-d]pyrazine-8-carboxamide sodium salt], less than 10 nM. The same measure for `O=C(NCc1ccc(F)cc1F)c1cn2c(c(O)c1=O)C(=O)N1C[C@@H]3CCCN3[C@H]1C2` [Example Z-2, (4aR,13aS)—N-[(2,4-Difluorophenyl)methyl]-10-hydroxy-9,11-dioxo-2,3,4a,5,9,11,13,13a-octahydro-1H-pyrido[1,2-a]pyrrolo[1′,2′:3,4]imidazo[1,2-d]pyrazine-8-carboxamide]: less than 10 nM. The result for `COCCN1CC[C@H](C)N2C(=O)c3c(O)c(=O)c(C(=O)NCc4ccc(F)cc4F)cn3C[C@@H]12` [Example Z-48, (4S,12aS)—N-[(2,4-Difluorophenyl)methyl]-7-hydroxy-4-methyl-1-[2-(methyloxy)ethyl]-6,8-dioxo-1,2,3,4,6,8,12,12a-octahydropyrido[1′,2′:4,5]pyrazino[1,2-a]pyrimidine-9-carboxamide] reads less than 10 nM; that for `CC(C)CN1CC[C@H](C)N2C(=O)c3c(O)c(=O)c(C(=O)NCc4ccc(F)cc4F)cn3C[C@@H]12` [Example Z-31, (4S,12aS)—N-[(2,4-Difluorophenyl)methyl]-7-hydroxy-4-methyl-1-(2-methylpropyl)-6,8-dioxo-1,2,3,4,6,8,12,12a-octahydropyrido[1′,2′:4,5]pyrazino[1,2-a]pyrimidine-9-carboxamide], less than 10 nM.

Turning to `C[C@H]1CCN(C2CC2)[C@@H]2Cn3cc(C(=O)NCc4ccc(F)cc4F)c(=O)c(O)c3C(=O)N12` [Example Z-47, (4S,12aS)-1-Cyclopropyl-N-[(2,4-difluorophenyl)methyl]-7-hydroxy-4-methyl-6,8-dioxo-1,2,3,4,6,8,12,12a-octahydropyrido[1′,2′:4,5]pyrazino[1,2-a]pyrimidine-9-carboxamide], the IC50 is less than 10 nM. Regarding `O=C(NCc1ccc(F)cc1F)c1cn2c(c(O)c1=O)C(=O)N1CC[C@@H]3CCCN3[C@@H]1C2` [Example Z-3, (3aS,13aS)—N-[(2,4-Difluorophenyl)methyl]-8-hydroxy-7,9-dioxo-1,2,3,3a,4,5,7,9,13,13a-decahydropyrido-[1′,2′:4,5]pyrazino[1,2-a]pyrrolo[1,2-c]pyrimidine-10-carboxamide], the IC50 is less than 10 nM. The same measure for `CC(C)CN1C[C@@H]2CCCC[C@@H]2N2C(=O)c3c(O)c(=O)c(C(=O)NCc4ccc(F)cc4F)cn3C[C@@H]12` (racemic) [Example Z-38, Sodium racemic-(4aS,6aS,14aS)-10-({[(2,4-difluorophenyl)methyl]amino}carbonyl)-6-(2-methylpropyl)-11,13-dioxo-1,2,3,4,4a,5,6,6a,7,11,13,14a-dodecahydropyrido[1′,2′:4,5]pyrazino[1,2-a]quinazolin-12-olate]: 10 to 100 nM.

The record behind these values is US11267823B2, “Substituted 1,2,3,3a,4,5,7,9,13,13a-decahydropyrido[1′,2′:4,5]pyrazino[1,2-a]pyrrolo[1,2-c]pyrimidines having HIV integrase inhibitory activity” (Shionogi & Co., Ltd., priority 2005, dated 2022).
